Data as given in the NIST ThermoML archive (doi:10.1021/je700373r).

Assays:
[1] = Fluid (supercritical or subcritical phases), Vibrating tube method
[2] = xn = mol fraction of the nth substance listed; conditions: Fluid (supercritical or subcritical phases), Vibrating tube method, x2 = 0

O=C=O [carbon dioxide]
mass density [kg/m3], [1]
Conditions	10000 kPa	15000 kPa	20000 kPa	30000 kPa	40000 kPa
308.15 K	717.2	816.1	866.1	929	971.7
313.15 K	636.6	781.3	840.2	909.7	955.5
323.15 K	397.3	701.8	784.9	870.3	922.8
333.15 K	296.1	607	724.4	829.6	889.8

O=C=O [carbon dioxide] + CC1=C(/C=C/C(C)=C/C=C/C(C)=C/C=C/C=C(C)/C=C/C=C(C)/C=C/C2=C(C)CCCC2(C)C)C(C)(C)CCC1
mass density [kg/m3], [2]
Conditions	10000 kPa	15000 kPa	20000 kPa	30000 kPa	40000 kPa
308.15 K	717.2	816.1	866.1	929	971.7
313.15 K	636.6	781.3	840.2	909.7	955.5
323.15 K	397.3	701.8	784.9	870.3	922.8
333.15 K	296.1	607	724.4	829.6	889.8
